Data published in patent US12371428B2 (Exelixis, Inc., priority 2019, dated 2025).

Key:
[1] = biological target: Met (phospho-Met, HGF-stimulated PC-3 prostate cancer cells) (Homo sapiens (Human), UniProt P08581); test: Met autophosphorylation ELISA in PC-3 cells (Example F); type: cell-based; details: cellular activity; Met autophosphorylation ELISA in PC-3 cells; read-out: c-Met IC50
In short: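 Serum-starved (3 h) PC-3 cells were treated 1 h with compounds (8-point curve, 0.3% DMSO), then stimulated with 100 ng/mL human HGF for 10 min. Lysate phospho-Met (panTyr) was measured by sandwich ELISA, normalised to DMSO and reference-inhibitor controls. IC50 came from 4-parameter logistic fit.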

[2] = biological target: KDR (phospho-KDR, VEGF165-stimulated HUVEC cells) (Homo sapiens (Human), UniProt P35968); test: KDR autophosphorylation ELISA in HUVEC cells (Example G); type: cell-based; details: cellular activity; KDR autophosphorylation ELISA in HUVEC cells
In short: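 Read-out is phospho-KDR measured by ELISA in lysates of VEGF165-stimulated (100 ng/mL, 5 min) HUVEC that were serum-starved 24 h and then pre-exposed 1 h to compound across 8 doses in 0.3% DMSO. Unstimulated lysates defined 0% and stimulated vehicle lysates 100% activity; IC50 values come from 4-parameter logistic regression.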

Chain of KDR (phospho-KDR, VEGF165-stimulated HUVEC cells) (P35968 20-1356): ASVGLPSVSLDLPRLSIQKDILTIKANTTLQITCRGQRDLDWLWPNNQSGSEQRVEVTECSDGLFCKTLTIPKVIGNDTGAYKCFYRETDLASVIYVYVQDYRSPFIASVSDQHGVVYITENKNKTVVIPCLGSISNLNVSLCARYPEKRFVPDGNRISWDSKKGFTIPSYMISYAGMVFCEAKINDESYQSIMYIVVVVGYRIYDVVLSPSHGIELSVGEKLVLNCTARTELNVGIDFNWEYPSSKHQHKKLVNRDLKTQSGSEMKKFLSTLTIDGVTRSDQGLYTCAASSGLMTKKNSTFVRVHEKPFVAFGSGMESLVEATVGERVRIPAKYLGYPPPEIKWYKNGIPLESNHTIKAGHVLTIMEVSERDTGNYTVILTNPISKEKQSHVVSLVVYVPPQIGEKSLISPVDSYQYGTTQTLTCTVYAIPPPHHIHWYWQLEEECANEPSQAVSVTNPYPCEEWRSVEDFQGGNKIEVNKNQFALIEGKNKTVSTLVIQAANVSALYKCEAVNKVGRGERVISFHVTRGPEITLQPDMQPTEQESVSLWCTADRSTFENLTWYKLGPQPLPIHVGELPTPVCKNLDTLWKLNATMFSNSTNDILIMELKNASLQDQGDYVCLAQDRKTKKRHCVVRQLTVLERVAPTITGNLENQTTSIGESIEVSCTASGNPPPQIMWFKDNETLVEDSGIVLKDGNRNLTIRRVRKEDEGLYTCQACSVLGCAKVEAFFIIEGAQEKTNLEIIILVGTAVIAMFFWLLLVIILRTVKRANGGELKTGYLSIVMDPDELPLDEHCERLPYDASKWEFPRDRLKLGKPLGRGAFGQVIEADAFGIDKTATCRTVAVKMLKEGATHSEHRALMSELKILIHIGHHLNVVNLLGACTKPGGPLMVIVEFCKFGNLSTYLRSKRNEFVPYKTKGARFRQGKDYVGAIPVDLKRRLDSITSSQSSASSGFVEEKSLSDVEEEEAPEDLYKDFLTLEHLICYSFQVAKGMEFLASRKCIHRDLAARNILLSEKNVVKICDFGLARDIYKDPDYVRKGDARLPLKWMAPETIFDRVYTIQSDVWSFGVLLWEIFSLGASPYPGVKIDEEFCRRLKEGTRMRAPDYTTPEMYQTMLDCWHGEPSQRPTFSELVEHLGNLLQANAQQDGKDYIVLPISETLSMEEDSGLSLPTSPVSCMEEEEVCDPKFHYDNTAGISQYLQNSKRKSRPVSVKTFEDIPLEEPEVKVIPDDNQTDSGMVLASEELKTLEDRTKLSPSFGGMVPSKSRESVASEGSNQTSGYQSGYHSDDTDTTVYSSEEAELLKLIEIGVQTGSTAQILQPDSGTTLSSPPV
Chain of Met (phospho-Met, HGF-stimulated PC-3 prostate cancer cells) (P08581 25-1390): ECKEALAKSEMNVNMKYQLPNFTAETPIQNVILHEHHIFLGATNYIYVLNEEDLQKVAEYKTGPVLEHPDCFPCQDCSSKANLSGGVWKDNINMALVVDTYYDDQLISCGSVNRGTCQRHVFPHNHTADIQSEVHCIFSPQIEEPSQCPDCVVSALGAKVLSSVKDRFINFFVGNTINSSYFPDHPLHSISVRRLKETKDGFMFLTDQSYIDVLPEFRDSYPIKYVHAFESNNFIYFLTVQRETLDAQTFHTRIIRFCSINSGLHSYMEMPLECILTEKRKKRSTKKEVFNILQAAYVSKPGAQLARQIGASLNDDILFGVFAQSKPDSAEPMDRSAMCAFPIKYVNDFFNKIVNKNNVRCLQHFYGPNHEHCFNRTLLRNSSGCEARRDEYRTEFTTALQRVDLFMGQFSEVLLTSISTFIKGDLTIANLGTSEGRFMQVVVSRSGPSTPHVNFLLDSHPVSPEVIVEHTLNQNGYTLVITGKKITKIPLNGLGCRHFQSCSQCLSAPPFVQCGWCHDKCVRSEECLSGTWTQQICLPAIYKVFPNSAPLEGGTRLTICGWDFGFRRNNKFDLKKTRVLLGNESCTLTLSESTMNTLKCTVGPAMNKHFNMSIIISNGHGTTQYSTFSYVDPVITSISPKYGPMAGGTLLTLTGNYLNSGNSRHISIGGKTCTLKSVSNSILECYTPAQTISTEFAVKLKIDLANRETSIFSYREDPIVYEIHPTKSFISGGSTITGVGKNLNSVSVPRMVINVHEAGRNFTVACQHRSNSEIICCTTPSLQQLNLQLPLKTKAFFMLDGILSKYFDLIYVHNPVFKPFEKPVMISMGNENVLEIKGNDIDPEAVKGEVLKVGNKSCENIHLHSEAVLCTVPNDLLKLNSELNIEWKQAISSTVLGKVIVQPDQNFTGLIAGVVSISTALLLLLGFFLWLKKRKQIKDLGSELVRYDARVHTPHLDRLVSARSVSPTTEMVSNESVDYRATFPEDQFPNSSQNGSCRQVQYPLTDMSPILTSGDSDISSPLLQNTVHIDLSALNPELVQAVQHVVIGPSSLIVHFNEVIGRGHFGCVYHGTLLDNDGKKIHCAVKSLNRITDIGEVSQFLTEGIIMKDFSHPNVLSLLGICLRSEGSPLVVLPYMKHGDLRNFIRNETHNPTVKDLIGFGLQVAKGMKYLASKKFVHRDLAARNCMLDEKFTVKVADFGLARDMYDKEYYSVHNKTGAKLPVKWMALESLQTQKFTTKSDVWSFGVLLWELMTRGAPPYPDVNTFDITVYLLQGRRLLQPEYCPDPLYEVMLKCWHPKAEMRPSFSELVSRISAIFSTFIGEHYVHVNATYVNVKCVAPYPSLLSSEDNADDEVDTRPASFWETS

Cc1ccc2nccc(Oc3ccc(NC(=O)c4c(C)nc(C)c(-c5ccc(F)cc5C)c4O)cc3F)c2n1 [Compound 506, N-[3-fluoro-4-[(6-methyl-1,5-naphthyridin-4-yl)oxy]phenyl]-5-(4-fluoro-2-methylphenyl)-4-hydroxy-2,6-dimethylpyridine-3-carboxamide]
IC50 [1]: < 100 nM | IC50 [2]: < 100 nM

Cc1ccc(C(=O)Nc2ccc(Oc3ccnc4cc(O)cnc34)c(F)c2)c(=O)n1-c1ccc(F)cc1 [Compound 551, N-[3-Fluoro-4-[(7-hydroxy-1,5-naphthyridin-4-yl)oxy]phenyl]-1-(4-fluorophenyl)-6-methyl-2-oxopyridine-3-carboxamide]
IC50 [1]: < 100 nM | IC50 [2]: < 100 nM

C=C(C)c1cnc2c(Oc3ccc(NC(=O)c4cnc(C)c(-c5ccc(F)cc5)c4O)cc3F)ccnc2c1 [Compound 456, 5-(4-fluorophenyl)-N-[3-fluoro-4-[(7-prop-1-en-2-yl-1,5-naphthyridin-4-yl)oxy]phenyl]-4-hydroxy-6-methylpyridine-3-carboxamide]
IC50 [1]: < 100 nM | IC50 [2]: < 100 nM

COc1ccc2nccc(Oc3ccc(NC(=O)c4cn(C)c(CF)c(-c5ccc(F)cc5)c4=O)cc3F)c2n1 [Compound 561, N-[3-Fluoro-4-[(6-methoxy-1,5-naphthyridin-4-yl)oxy]phenyl]-6-(fluoromethyl)-5-(4-fluorophenyl)-1-methyl-4-oxopyridine-3-carboxamide]
IC50 [1]: < 100 nM | IC50 [2]: > 300 nM

COc1cc2nccc(Oc3ccc(NC(=O)c4cc(C)nn(-c5ccc(F)cc5)c4=O)cc3)c2nc1OC [Compound 520, N-[4-[(6,7-dimethoxy-1,5-naphthyridin-4-yl)oxy]phenyl]-2-(4-fluorophenyl)-6-methyl-3-oxopyridazine-4-carboxamide]
IC50 [1]: < 100 nM | IC50 [2]: < 100 nM

COc1cc2nccc(Oc3ccc(NC(=O)c4cn(CC(F)(F)F)c(C)c(-c5ccc(F)cc5)c4=O)cc3)c2cc1OC [Compound 260, N-[4-(6,7-Dimethoxyquinolin-4-yl)oxyphenyl]-5-(4-fluorophenyl)-6-methyl-4-oxo-1-(2,2,2-trifluoroethyl)pyridine-3-carboxamide]
IC50 [1]: 100 to 300 nM | IC50 [2]: > 300 nM

COc1cnc2c(Oc3ccc(NC(=O)c4cn(C)c(C)c(-c5ccc(F)cc5C)c4=O)cc3)ccnc2c1 [Compound 187, 5-(4-Fluoro-2-methylphenyl)-N-[4-[(7-methoxy-1,5-naphthyridin-4-yl)oxy]phenyl]-1,6-dimethyl-4-oxopyridine-3-carboxamide]
IC50 [1]: < 100 nM | IC50 [2]: > 300 nM

COc1cnc2c(Oc3ccc(NC(=O)c4ccnn(-c5ccc(F)cc5C)c4=O)cc3)ccnc2c1 [Compound 530, 2-(4-fluoro-2-methylphenyl)-N-[4-[(7-methoxy-1,5-naphthyridin-4-yl)oxy]phenyl]-3-oxopyridazine-4-carboxamide]
IC50 [1]: < 100 nM | IC50 [2]: < 100 nM

COc1cc2nccc(Oc3ccc(NC(=O)c4cn(C)c(C(=O)O)c(-c5ccc(F)cc5)c4=O)cc3F)c2nc1OC [Compound 553, 5-[[4-[(6,7-Dimethoxy-1,5-naphthyridin-4-yl)oxy]-3-fluorophenyl]carbamoyl]-3-(4-fluorophenyl)-1-methyl-4-oxopyridine-2-carboxylic acid]
IC50 [1]: < 100 nM | IC50 [2]: > 300 nM

COc1cc2c(Oc3ccc(NC(=O)c4ccc(C)n(-c5ccc(F)cc5)c4=O)cc3F)ccnc2cn1 [Compound 494, N-[3-fluoro-4-[(6-methoxy-1,7-naphthyridin-4-yl)oxy]phenyl]-1-(4-fluorophenyl)-6-methyl-2-oxopyridine-3-carboxamide]
IC50 [1]: < 100 nM | IC50 [2]: < 100 nM

COc1nc2c(Oc3ccc(NC(=O)c4c(C)nc(C)c(-c5ccc(F)cc5)c4O)cc3F)ccnc2cc1C [Compound 459, N-[3-fluoro-4-[(6-methoxy-7-methyl-1,5-naphthyridin-4-yl)oxy]phenyl]-5-(4-fluorophenyl)-4-hydroxy-2,6-dimethylpyridine-3-carboxamide]
IC50 [1]: < 100 nM | IC50 [2]: < 100 nM

COc1cc2nccc(Oc3ccc(NC(=O)c4cnc(COC(C)=O)c(-c5ccc(F)cc5)c4O)cc3F)c2nc1OC [Compound 544, [5-[[4-[(6,7-dimethoxy-1,5-naphthyridin-4-yl)oxy]-3-fluorophenyl]carbamoyl]-3-(4-fluorophenyl)-4-hydroxypyridin-2-yl]methyl acetate]
IC50 [1]: < 100 nM | IC50 [2]: < 100 nM

COCc1nc(C)c(-c2ccc(F)cc2)c(O)c1C(=O)Nc1ccc(Oc2ccnc3ccc(OC)nc23)cc1 [Compound 510, 5-(4-fluorophenyl)-4-hydroxy-2-(methoxymethyl)-N-[4-[(6-methoxy-1,5-naphthyridin-4-yl)oxy]phenyl]-6-methylpyridine-3-carboxamide]
IC50 [1]: < 100 nM | IC50 [2]: < 100 nM

COCCOc1ccc2nccc(Oc3ccc(NC(=O)c4c(C)nc(C)c(-c5ccc(F)cc5)c4O)cc3F)c2n1 [Compound 349, N-[3-fluoro-4-[[6-(2-methoxyethoxy)-1,5-naphthyridin-4-yl]oxy]phenyl]-5-(4-fluorophenyl)-4-hydroxy-2,6-dimethylpyridine-3-carboxamide]
IC50 [1]: < 100 nM | IC50 [2]: < 100 nM

COc1cc2nccc(Oc3cc(F)c(NC(=O)c4cnc(C)c(-c5ccc(F)cc5)c4O)cc3F)c2nc1C [Compound 542, N-[2,5-difluoro-4-[(7-methoxy-6-methyl-1,5-naphthyridin-4-yl)oxy]phenyl]-5-(4-fluorophenyl)-4-hydroxy-6-methylpyridine-3-carboxamide]
IC50 [1]: < 100 nM | IC50 [2]: < 100 nM

COc1cnc2c(Oc3ccc(NC(=O)c4cc(C)nn(-c5ccc(F)cc5)c4=O)cc3)ccnc2c1 [Compound 522, 2-(4-fluorophenyl)-N-[4-[(7-methoxy-1,5-naphthyridin-4-yl)oxy]phenyl]-6-methyl-3-oxopyridazine-4-carboxamide]
IC50 [1]: < 100 nM | IC50 [2]: > 300 nM

CCc1nc(C)c(-c2ccc(F)cc2)c(O)c1C(=O)Nc1ccc(Oc2ccnc3ccc(OC)nc23)cc1 [Compound 509, 2-ethyl-5-(4-fluorophenyl)-4-hydroxy-N-[4-[(6-methoxy-1,5-naphthyridin-4-yl)oxy]phenyl]-6-methylpyridine-3-carboxamide]
IC50 [1]: < 100 nM | IC50 [2]: < 100 nM

C=C(C)c1cnc2c(Oc3ccc(NC(=O)c4cnc(C)c(-c5ccc(F)cc5)c4O)cc3)ccnc2c1 [Compound 454, 5-(4-fluorophenyl)-4-hydroxy-6-methyl-N-[4-[(7-prop-1-en-2-yl-1,5-naphthyridin-4-yl)oxy]phenyl]pyridine-3-carboxamide]
IC50 [1]: < 100 nM | IC50 [2]: < 100 nM

COc1ccc2nccc(Oc3ccc(NC(=O)c4c(C)ncc(-c5ccc(F)cc5C)c4O)cc3F)c2n1 [Compound 480, N-[3-fluoro-4-[(6-methoxy-1,5-naphthyridin-4-yl)oxy]phenyl]-5-(4-fluoro-2-methylphenyl)-4-hydroxy-2-methylpyridine-3-carboxamide]
IC50 [1]: < 100 nM | IC50 [2]: < 100 nM

COc1cc2nccc(Oc3ccc(NC(=O)c4c(C)nc(C)c(-c5ccc(F)cc5CO)c4O)cc3F)c2nc1OC [Compound 518, N-[4-[(6,7-dimethoxy-1,5-naphthyridin-4-yl)oxy]-3-fluorophenyl]-5-[4-fluoro-2-(hydroxymethyl]phenyl]-4-hydroxy-2,6-dimethylpyridine-3-carboxamide]
IC50 [1]: < 100 nM | IC50 [2]: < 100 nM

COc1cc2nccc(Oc3ccc(NC(=O)c4cn(C)c(CF)c(-c5ccc(F)cc5)c4=O)cc3)c2nc1OC [Compound 560, N-[4-[(6,7-Dimethoxy-1,5-naphthyridin-4-yl)oxy]phenyl]-6-(fluoromethyl)-5-(4-fluorophenyl)-1-methyl-4-oxopyridine-3-carboxamide]
IC50 [1]: < 100 nM | IC50 [2]: 100 to 300 nM

COc1ccc2nccc(Oc3ccc(NC(=O)c4c(C)n(C)cc(-c5ccc(F)cc5C)c4=O)cc3F)c2n1 [Compound 483, N-[3-fluoro-4-[(6-methoxy-1,5-naphthyridin-4-yl)oxy]phenyl]-5-(4-fluoro-2-methylphenyl)-1,2-dimethyl-4-oxopyridine-3-carboxamide]
IC50 [1]: < 100 nM | IC50 [2]: > 300 nM

CCc1ncc(C(=O)Nc2ccc(Oc3ccnc4cc(OC)c(OC)nc34)c(F)c2)c(O)c1-c1ccc(F)cc1 [Compound 504, N-[4-[(6,7-dimethoxy-1,5-naphthyridin-4-yl)oxy]-3-fluorophenyl]-6-ethyl-5-(4-fluorophenyl)-4-hydroxypyridine-3-carboxamide]
IC50 [1]: < 100 nM | IC50 [2]: < 100 nM

C=C(C)c1cnc2c(Oc3ccc(NC(=O)c4c(C)nc(C)c(-c5ccc(F)cc5)c4O)cc3F)ccnc2c1 [Compound 451, 5-(4-fluorophenyl)-N-[3-fluoro-4-[(7-prop-1-en-2-yl-1,5-naphthyridin-4-yl)oxy]phenyl]-4-hydroxy-2,6-dimethylpyridine-3-carboxamide]
IC50 [1]: < 100 nM | IC50 [2]: < 100 nM

Cc1nc(C)c(-c2ccc(F)cc2)c(O)c1C(=O)Nc1ccc(Oc2ccnc3cc(O)cnc23)c(F)c1 [Compound 554, N-[3-Fluoro-4-[(7-hydroxy-1,5-naphthyridin-4-yl)oxy]phenyl]-5-(4-fluorophenyl)-4-hydroxy-2,6-dimethylpyridine-3-carboxamide]
IC50 [1]: < 100 nM | IC50 [2]: < 100 nM

COc1cc2nccc(Oc3ccc(NC(=O)c4ccc(C)n(-c5ccc(F)cc5)c4=O)cc3F)c2nc1OC [Compound 254, N-[4-[(6,7-Dimethoxy-1,5-naphthyridin-4-yl)oxy]-3-fluorophenyl]-1-(4-fluorophenyl)-6-methyl-2-oxopyridine-3-carboxamide]
IC50 [1]: < 100 nM | IC50 [2]: < 100 nM
